Reference: US11464823B2, “Curcumin carbon quantum dots and use thereof” (priority 2018, dated 2022)

How the values were obtained:
EV71 = experiment: Cytopathic effect (CPE) inhibition assay, RD cells infected with EV71 (pre-, post-, co-treatment); format: cell-based, human rhabdomyosarcoma (RD) cells
Protocol: RD cells were seeded at 7.5×10^3 cells/well in 96-well plates and incubated for 24 hours at 37° C. To analyze how Cur-CQDs affect the infectivity of EV71, Cur-CQDs pre-treatment, post-treatment, co-treatment assay was taken as follows. For pre-treatment, Cur-CQDs were pre-incubated with RD cells at 37° C. for 24 hours and then cultured with EV71 for 48 hours at 37° C. For post-treatment, EV71 were pre-incubated with RD cells at 37° C. for 24 hours, after that, cell monolayers were washed with PBS to remove non-adherent virus and further incubated with DMEM (containing 2% FBS and Cur-CQDs) at 37° C. for 48 hours. For co-treatment, EV71 were pre-incubated with series of CQDcurs at 37° C. for 1 hour, then cultured with RD cells for 72 hours at 37° C. Negative (cells only) and positive (cells infected with EV71 without Cur-CQDs) controls were set as well.

[1] = Cytotoxicity / cell viability (Presto blue); format: cell-based; settings: human, RD cells
Protocol: The in vitro cellular viability of the as-prepared Cur-CQDs was evaluated using the Presto blue. First, approximately 7.5×10^3 RD cells/well were seeded in 96-cell plates and were fed with DMEM containing 10% fetal bovine serum (FBS). After 24 hours of incubation in a humidified incubator with 5% CO2 at 37° C., the medium was removed from each well, and RD cells were washed with phosphate buffered saline (PBS, pH 7.4). Then, sample solutions (Cur-CQDs with different concentrations) or the control solutions were added in and incubated with cells for 24 hours to 72 hours. Each concentration was tested with 4 sets of parallel samples. After that, the culture medium was replaced with Presto blue and incubated for another 1 hour at 37° C. Finally, fluorescence was measured at an excitation wavelength at 540 nm and an emission wavelength at 590 nm with a BioTek Microplate Reader. The viability of cells was expressed as the percentage of control untreated cells (100%).

COc1cc(/C=C/C(=O)CC(=O)/C=C/c2ccc(O)c(OC)c2)ccc1O [Curcumin]
EC50 (EV71; Enterovirus A, EV71 in RD cell, read-out: Antiviral activity EC50 (concentration at which inhibition rate of CPE reaches halfway between baseline and maximum)): > 200 µg/mL | selectivity ratio (EV71; human): 0.1 | CC50 [1]: > 13 µg/mL
